Source: patent US20250302080A1, “SWEETNESS AND/OR FLAVOR ENHANCER” (AJINOMOTO CO., INC., priority 2022, published 2025)

Key:
[1] = Sensory evaluation of sweetness intensity in sucrose solution (Experimental Examples 25-27)
Method: A negative control sucrose solution (0.7 wt % sucrose solution) was prepared by dissolving sucrose in filtered water.
(§1) A sensory evaluation of sweetness intensity was performed for each sample by a panel of four experts according to the following evaluation criteria.
Sweetness intensity was evaluated by 0.0 to 10.0 points based on the following reference samples (negative control (hereinafter referred to as NC) (0.0 point); reference 1 (hereinafter referred to as R1) (3.0 points), reference 2 (hereinafter referred to as R2) (5.0 points); reference 3 (hereinafter referred to as R3) (10.0 points)). The average score (rounded to two decimal places) of each expert panelist was calculated. An average score of 3.0 points or more was considered to be functional. • NC (0.0 point): 7.0 wt % sucrose solution (solvent: filtered water) • R1 (3.0 points): 7.3 wt % sucrose solution (solvent: filtered water) • R2 (5.0 points): 7.5 wt % sucrose solution (solvent: filtered water) • R3 (10.0 points): 8.0 wt % sucrose solution (solvent: filtered water)
A sensory evaluation of sweetness intensity was performed for each sample by a panel of four experts according to the same evaluation criteria as in Experimental Example 25.

[2] = Sensory evaluation of sweetness intensity in RebA solution, four reference samples (Experimental Examples 17-19)
Method: A negative control RebA solution (0.073 wt % RebA solution) was prepared by dissolving RebA in filtered water.
as §1
Sweetness intensity was evaluated by 0.0 to 10.0 points based on the following reference samples (negative control (hereinafter referred to as NC) (0.0 point); reference 1 (hereinafter referred to as R1) (3.2 points), reference 2 (hereinafter referred to as R2) (5.0 points); reference 3 (hereinafter referred to as R3) (10.0 points)). The average score (rounded to two decimal places) of each expert panelist was calculated. An average score of 3.0 points or more was considered to be functional. • NC (0.0 point): 0.073 wt % RebA solution (solvent: filtered water) • R1 (3.2 points): 0.073 wt % RebA solution (solvent: filtered water)+decanoic acid (10 ppb) • R2 (5.0 points): 0.077 wt % RebA solution (solvent: filtered water) • R3 (10.0 points): 0.080 wt % RebA solution (solvent: filtered water)
A sensory evaluation of sweetness intensity was performed for each sample by a panel of four experts according to the same evaluation criteria as in Experimental Example 17.

[3] = added alone, 3.0 points or more

**Q.** With `O=C1C[C@@H](c2ccc(O)cc2)Oc2cc(O)cc(O)c21` [naringenin] as the molecule, how does the “concentration at which a sweetness-enhancing effect was confirmed” value [1, 3] read?
**A.** ≥ 15 ppm

**Q.** What about the sweetness intensity ([1]; naringenin alone at 1 ppm) of the same molecule?
**A.** 1.1 points

**Q.** And the sweetness intensity ([1]; naringenin alone at 5 ppm)?
**A.** 1.7 points

**Q.** What about the sweetness intensity ([1]; naringenin alone at 10 ppm) of the same molecule?
**A.** 2.6 points

**Q.** What about the sweetness intensity ([1]; naringenin alone at 15 ppm) of the same molecule?
**A.** 3.6 points

**Q.** And the sweetness intensity ([1]; naringenin alone at 30 ppm)?
**A.** 4.6 points

**Q.** And the sweetness intensity ([1]; naringenin alone at 50 ppm)?
**A.** 5.8 points

**Q.** What about the “concentration at which a sweetness-enhancing effect was confirmed” value [2, 3] of the same molecule?
**A.** ≥ 10 ppm

**Q.** And the sweetness intensity ([2]; naringenin alone at 1 ppm)?
**A.** 1.8 points

**Q.** What about the sweetness intensity ([2]; naringenin alone at 5 ppm) of the same molecule?
**A.** 2.5 points

**Q.** What about the sweetness intensity ([2]; naringenin alone at 10 ppm) of the same molecule?
**A.** 3.3 points

**Q.** And the sweetness intensity ([2]; naringenin alone at 15 ppm)?
**A.** 4.1 points

**Q.** What about the sweetness intensity ([2]; naringenin alone at 30 ppm) of the same molecule?
**A.** 5.0 points

**Q.** And the sweetness intensity ([2]; naringenin alone at 50 ppm)?
**A.** 5.4 points
